The values below come from patent US9254262B2, “Dosage and formulation” (Almirall, S.A., priority 2008, dated 2016).

Structures are written as SMILES.

The test system of the series is Patients with moderate to severe stable COPD. The experiment in a line: 4-week randomized once-daily inhaled treatment in COPD patients, spirometry (FEV1) and tolerability. The format is in vivo, human. The procedure: Methods: Patients with moderate to severe stable COPD were randomized to receive double-blind, once-daily treatment with aclidinium (25, 50, 100, 200, or 400 μg), placebo, or open-label tiotropium 18 μg for 4 weeks. Spirometric measurements were performed at 22-24 h after the first dose and then at weekly intervals, and from 0.5-6 h post-administration on Day 1 and at Week 4 (Day 29).
Results: The ITT population included 460 patients.
Mean change from baseline in trough FEV1 on Day 29

The mark [1] stands for this setting: 25-400 μg once daily for 4 weeks, COPD patients.

Consider `O=C(O[C@H]1C[N+]2(CCCOc3ccccc3)CCC1CC2)C(O)(c1cccs1)c1cccs1.[Br-]` [Aclidinium, 3(R)-(2-hydroxy-2,2-dithien-2-ylacetoxy)-1-(3-phenoxypropyl)-1-azoniabicyclo[2.2.2]octane bromide], for which, under setting [1], the “Effect on ECG, laboratory parameters or adverse events” value was “no dose-dependent effect” and the Tolerability result is reported as “well tolerated”. In addition, the “Effect on trough FEV1 on Day 29 (dose dependence)” value (25-400 μg once daily, ITT population 460 patients) is on record as “dose-dependently increased”. In addition, the “Bronchodilatory effect compared with open-label tiotropium 18 μg” value (aclidinium 200 and 400 μg) is listed as “comparable bronchodilatory effects”. For the same molecule, where the note is “all doses”, the “Bronchodilatory effect during the first 6 h post-dose on Day 29 versus Day 1” value is on record as “comparable to that on Day 1”. In addition, where the note is “once-daily dosing, COPD patients”, the Duration of bronchodilation entry is listed as “sustained bronchodilation over 24 h”.

Turning to `C[N+]1(C)[C@@H]2C[C@@H](OC(=O)C(O)(c3cccs3)c3cccs3)C[C@H]1[C@@H]1O[C@@H]12` [Tiotropium, reference compound], the “Mean change from baseline in trough FEV1 on Day 29 (Mean Δ)” value (tiotropium 18 μg once daily, open-label, 4 weeks, COPD patients, *p < 0.05 vs placebo) was 161* ml.
